Source: paper PMC3278406 (PLoS ONE, 2012)

Legend:
Stx1B (Stx1 B-subunits) = Stx1B (Stx1 B-subunits) (Bacteriophage H30, UniProt P69178); type: binding, Escherichia coli O157:H7; conditions: read-out: Kd of Stx1B for glycan
Stx2B (Stx2 B-subunits) = Stx2B (Stx2 B-subunits) (Escherichia phage 933W, UniProt P09386); type: binding, Escherichia coli O157:H7
Chain of Stx2B (Stx2 B-subunits) (P09386 20-89 limits assumed): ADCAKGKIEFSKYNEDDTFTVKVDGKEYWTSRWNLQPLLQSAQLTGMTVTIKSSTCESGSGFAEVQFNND

Chain of Stx1B (Stx1 B-subunits) (P69178 21-89 limits assumed): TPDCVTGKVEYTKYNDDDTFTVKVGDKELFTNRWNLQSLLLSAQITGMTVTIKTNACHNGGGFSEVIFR

Galα1-4Galβ1-4Glc [Pk] was tested, and the Kd (Stx1B (Stx1 B-subunits)) was 4 ± 0.3 mM, the “binding of Stx2B to glycan” value (Stx2B (Stx2 B-subunits)) was “no binding” and the Kd (Stx2B (Stx2 B-subunits); read-out: Kd of Stx2B for glycan) was greater than 12 mM.
